For twelve molecules, IC50 results are on record in patent US20250114374A1, “BCL-2 INHIBITORS” (Newave Pharmaceutical Inc., priority 2021, published 2025).

For the first assay, the system named is RS4; 11 with G101V mutation. The experiment in a line: In vitro anti-proliferation assay (ATPlite luminescence) in BCL-2-dependent ALL cell line RS4;11 with G101V mutation. It is filed as cell-based. The conditions noted are these: Homo sapiens, RS4-11, 72 h; read-out: RS411-G101V IC50. The method in brief: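 IC50 came from luminescent ATP quantification (ATPlite) following cell lysis. Compound dose ranges were applied for roughly 72 h to about 1×10^4 G101V-mutant RS4;11 cells per well, in 10% FBS medium.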
For `CC[C@H](c1ccc(F)c(F)c1)N1CCN(C2CC3(CCN(c4ccc(C(=O)NS(=O)(=O)c5cc6c(c([N+](=O)[O-])c5)N[C@H](C5CCOCC5)CO6)c(N5c6cc7cc[nH]c7nc6O[C@H]6COCC[C@@H]65)c4)CC3)C2)[C@H](c2ccccc2OC(C)C)C1` [Example 246, 4-(2-((R)-4-((R)-1-(3,4-difluorophenyl)propyl)-2-(2-isopropoxyphenyl)piperazin-1-yl)-7-azaspiro[3.5]nonan-7-yl)-N-(((R)-5-nitro-3-(tetrahydro-2H-pyran-4-yl)-3,4-dihydro-2H-benzo[b][1,4]oxazin-7-yl)sulfonyl)-2-((5aS,9aR)-6,7,9,9a-tetrahydro-1H-pyrano[3,4-b]pyrrolo[3′,2′:5,6]pyrido[3,2-e][1,4]oxazin-5(5aH)-yl)benzamide], the concentration for half-maximal inhibition (IC50) (as a rule, the concentration that gives 50% inhibition) stood at 209 nM. On the same count and under the same terms, as for `Cc1ccc(CN2CCN(C3CC4(CCN(c5ccc(C(=O)NS(=O)(=O)c6cc7c(c([N+](=O)[O-])c6)N[C@H](C6CCOCC6)CO7)c(N6c7cc8cc[nH]c8nc7O[C@H]7COCC[C@@H]76)c5)CC4)C3)[C@H](c3ccccc3OC(C)C)C2)cn1` [Example 254, 4-(2-((R)-2-(2-isopropoxyphenyl)-4-((6-methylpyridin-3-yl)methyl)piperazin-1-yl)-7-azaspiro[3.5]nonan-7-yl)-N-(((R)-5-nitro-3-(tetrahydro-2H-pyran-4-yl)-3,4-dihydro-2H-benzo[b][1,4]oxazin-7-yl)sulfonyl)-2-((5aS,9aR)-6,7,9,9a-tetrahydro-1H-pyrano[3,4-b]pyrrolo[3′,2′:5,6]pyrido[3,2-e][1,4]oxazin-5(5aH)-yl)benzamide], the figure is 3.19 nM.

For the molecule `CC(C)Oc1ccccc1[C@@H]1CN(Cc2ccc(F)c(F)c2)CCN1C1CC2(CCN(c3ccc(C(=O)NS(=O)(=O)c4cc5c(c([N+](=O)[O-])c4)N[C@H](C4CCOCC4)CO5)c(N4c5cc6cc[nH]c6nc5O[C@H]5COCC[C@@H]54)c3)CC2)C1` [Example 181, 4-(2-((R)-4-(3,4-difluorobenzyl)-2-(2-isopropoxyphenyl)piperazin-1-yl)-7-azaspiro[3.5]nonan-7-yl)-N-(((R)-5-nitro-3-(tetrahydro-2H-pyran-4-yl)-3,4-dihydro-2H-benzo[b][1,4]oxazin-7-yl)sulfonyl)-2-((5aS,9aR)-6,7,9,9a-tetrahydro-1H-pyrano[3,4-b]pyrrolo[3′,2′:5,6]pyrido[3,2-e][1,4]oxazin-5(5aH)-yl)benzamide], the half-maximal inhibitory concentration (IC50) turned out to be 9.6 nM.

For `CC(C)Oc1ccccc1[C@@H]1CN([C@H]2COCc3c(F)cc(F)cc32)CCN1C1CC2(CCN(c3ccc(C(=O)NS(=O)(=O)c4cc5c(c([N+](=O)[O-])c4)N[C@H](C4CCOCC4)CO5)c(N4c5cc6cc[nH]c6nc5O[C@H]5COCC[C@@H]54)c3)CC2)C1` [Example 230, 4-(2-((R)-4-((R)-6,8-difluoroisochroman-4-yl)-2-(2-isopropoxyphenyl)piperazin-1-yl)-7-azaspiro[3.5]nonan-7-yl)-N-(((R)-5-nitro-3-(tetrahydro-2H-pyran-4-yl)-3,4-dihydro-2H-benzo[b][1,4]oxazin-7-yl)sulfonyl)-2-((5aS,9aR)-6,7,9,9a-tetrahydro-1H-pyrano[3,4-b]pyrrolo[3′,2′:5,6]pyrido[3,2-e][1,4]oxazin-5(5aH)-yl)benzamide], the IC50 was 104 nM.

Still in this assay, the particulars now being: cellular anti-proliferative IC50, about 72 hours, medium with 10% FBS, ATPlite; read-out: RS411-G101V IC50.
Regarding `Cc1ccccc1[C@@H]1CN(Cc2cnc(N3CCOC[C@@H]3C)c(F)c2)CCN1C1CC2(CCN(c3ccc(C(=O)NS(=O)(=O)c4cc5c(c([N+](=O)[O-])c4)N[C@H](C4CCOCC4)CO5)c(N4c5cc6cc[nH]c6nc5O[C@H]5COCC[C@@H]54)c3)CC2)C1` [Example 189, 2-[(3R,8S)-2,5-dioxa-9,15,17-triazatetracyclo[8.7.0.0^{3,8}.0^{12,16}]heptadeca-1(10),11,13,16-tetraen-9-yl]-4-{2-[(2R)-4-({5-fluoro-6-[(3S)-3-methylmorpholin-4-yl]pyridin-3-yl}methyl)-2-(2-methylphenyl)piperazin-1-yl]-7-azaspiro[3.5]nonan-7-yl}-N-[(3R)-5-nitro-3-(oxan-4-yl)-3,4-dihydro-2H-1,4-benzoxazin-7-ylsulfonyl]benzamide], the IC50 was found to be 36.8 nM. On the same count and under the same terms, then `CC(C)Oc1ccccc1[C@H]1CN(Cc2ccc(N3CCOC[C@H]3C)c(F)c2)CCN1C1CC2(CCN(c3ccc(C(=O)NS(=O)(=O)c4ccc(NCC5CCC(C)(O)CC5)c([N+](=O)[O-])c4)c(N4c5cc6cc[nH]c6nc5O[C@H]5COCC[C@@H]54)c3)CC2)C1` (stereo partly drawn) [Example 153, 2-[(3R,8S)-2,5-dioxa-9,15,17-triazatetracyclo[8.7.0.0^{3,8}.0^{12,16}]heptadeca-1(10),11,13,16-tetraen-9-yl]-4-{2-[(2S)-4-({3-fluoro-4-[(3R)-3-methylmorpholin-4-yl]phenyl}methyl)-2-(2-isopropoxyphenyl)piperazin-1-yl]-7-azaspiro[3.5]nonan-7-yl}-N-[3-nitro-4-({[(1r,4r)-4-hydroxy-4-methylcyclohexyl]methyl}amino)benzenesulfonyl]benzamide], with 47.1 nM; and `CC(C)Oc1ccccc1[C@@H]1CN(C2CCC(C)(C)CC2)CCN1C1CC2(CCN(c3ccc(C(=O)NS(=O)(=O)c4cc5c(c([N+](=O)[O-])c4)N[C@H](C4CCOCC4)CO5)c(N4c5cc6cc[nH]c6nc5O[C@H]5COCC[C@@H]54)c3)CC2)C1` (stereo partly drawn) [Example 226, 4-{2-[(2R)-4-(4,4-dimethylcyclohexyl)-2-(2-isopropoxyphenyl)piperazin-1-yl]-7-azaspiro[3.5]nonan-7-yl}-2-[(3R,8S)-2,5-dioxa-9,15,17-triazatetracyclo[8.7.0.0^{3,8}.0^{12,16}]heptadeca-1(10),11,13,16-tetraen-9-yl]-N-[(3R)-5-nitro-3-(oxan-4-yl)-3,4-dihydro-2H-1,4-benzoxazin-7-ylsulfonyl]benzamide], with 62.6 nM. The same measure, in the same setting: as for `Cc1ccccc1[C@@H]1CN(Cc2cnc(N3CCOC[C@@H]3C)c(C)c2)CCN1C1CC2(CCN(c3ccc(C(=O)NS(=O)(=O)c4cc5c(c([N+](=O)[O-])c4)N[C@H](C4CCOCC4)CO5)c(N4c5cc6cc[nH]c6nc5O[C@H]5COCC[C@@H]54)c3)CC2)C1` [Example 205, 2-[(3R,8S)-2,5-dioxa-9,15,17-triazatetracyclo[8.7.0.0^{3,8}.0^{12,16}]heptadeca-1(10),11,13,16-tetraen-9-yl]-4-{2-[(2R)-4-({5-methyl-6-[(3S)-3-methylmorpholin-4-yl]pyridin-3-yl}methyl)-2-(2-methylphenyl)piperazin-1-yl]-7-azaspiro[3.5]nonan-7-yl}-N-[(3R)-5-nitro-3-(oxan-4-yl)-3,4-dihydro-2H-1,4-benzoxazin-7-ylsulfonyl]benzamide], the figure is 21.3 nM; as for `COc1cc(CN2CCN(C3CC4(CCN(c5ccc(C(=O)NS(=O)(=O)c6ccc(NC[C@H]7CC[C@](C)(O)CC7)c([N+](=O)[O-])c6)c(N6c7cc8cc[nH]c8nc7O[C@H]7COCC[C@@H]76)c5)CC4)C3)[C@H](c3ccccc3C)C2)cnc1N1CCOC[C@@H]1C` [Example 138, N-((4-((((1r,4r)-4-hydroxy-4-methylcyclohexyl)methyl)amino)-3-nitrophenyl)sulfonyl)-4-(2-((R)-4-((5-methoxy-6-((S)-3-methylmorpholino)pyridin-3-yl)methyl)-2-(o-tolyl)piperazin-1-yl)-7-azaspiro[3.5]nonan-7-yl)-2-((5aS,9aR)-6,7,9,9a-tetrahydro-1H-pyrano[3,4-b]pyrrolo[3′,2′:5,6]pyrido[3,2-e][1,4]oxazin-5(5aH)-yl)benzamide], 1.7 nM; as for `CC(C)Oc1ccccc1[C@@H]1CN([C@@H]2CCOc3cc(F)c(F)cc32)CCN1C1CC2(CCN(c3ccc(C(=O)NS(=O)(=O)c4cc5c(c([N+](=O)[O-])c4)N[C@H](C4CCOCC4)CO5)c(N4c5cc6cc[nH]c6nc5O[C@H]5COCC[C@@H]54)c3)CC2)C1` [Example 211, 4-{2-[(2R)-4-[(4R)-6,7-difluoro-3,4-dihydro-2H-1-benzopyran-4-yl]-2-(2-isopropoxyphenyl)piperazin-1-yl]-7-azaspiro[3.5]nonan-7-yl}-2-[(3R,8S)-2,5-dioxa-9,15,17-triazatetracyclo[8.7.0.0^{3,8}.0^{12,16}]heptadeca-1(10),11,13,16-tetraen-9-yl]-N-[(3R)-5-nitro-3-(oxan-4-yl)-3,4-dihydro-2H-1,4-benzoxazin-7-ylsulfonyl]benzamide], 87.2 nM. On to `CC(C)Oc1ccccc1[C@H]1CN(Cc2ccc(F)c(F)c2)CCN1C1CC2(CCN(c3ccc(C(=O)NS(=O)(=O)c4ccc(NCC5CCOCC5)c([N+](=O)[O-])c4)c(N4c5cc6cc[nH]c6nc5O[C@H]5COCC[C@@H]54)c3)CC2)C1` [Example 185, 4-{2-[(2S)-4-[(3,4-difluorophenyl)methyl]-2-(2-isopropoxyphenyl)piperazin-1-yl]-7-azaspiro[3.5]nonan-7-yl}-2-[(3R,8S)-2,5-dioxa-9,15,17-triazatetracyclo[8.7.0.0^{3,8}.0^{12,16}]heptadeca-1(10),11,13,16-tetraen-9-yl]-N-{3-nitro-4-[(oxan-4-ylmethyl)amino]benzenesulfonyl}benzamide], for which the half-inhibitory concentration (IC50) is 112 nM.

Regarding `CC(C)Oc1ccccc1[C@H]1CN(C2CCC(N3CCOC[C@H]3C)CC2)CCN1C1CC2(CCN(c3ccc(C(=O)NS(=O)(=O)c4ccc(NCC5CCC(C)(O)CC5)c([N+](=O)[O-])c4)c(N4c5cc6cc[nH]c6nc5O[C@H]5COCC[C@@H]54)c3)CC2)C1` (stereo partly drawn) [Example 160, N-((4-((((1r,4r)-4-hydroxy-4-methylcyclohexyl)methyl)amino)-3-nitrophenyl)sulfonyl)-4-(2-((S)-2-(2-isopropoxyphenyl)-4-((1S,4R)-4-((R)-3-methylmorpholino)cyclohexyl)piperazin-1-yl)-7-azaspiro[3.5]nonan-7-yl)-2-((5aS,9aR)-6,7,9,9a-tetrahydro-1H-pyrano[3,4-b]pyrrolo[3′,2′:5,6]pyrido[3,2-e][1,4]oxazin-5(5aH)-yl)benzamide], the IC50 amounted to 22.8 nM.
